Assay results as given in patent US6710075B2, “Therapeutic compounds and methods” (The Government of the State of Sarawak, Malaysia, priority 2000, dated 2004).
Like-named read-outs stand apart in the source and are kept apart here.

Assays:
A498 = test: NCI in vitro anticancer drug discovery screen (sulforhodamine B); format: cell-based; details: Homo sapiens, A498, renal, 48 hr
Experimental: (§1) (c) Testing of Compound A against a much larger cell line panel in the NCI in vitro anticancer screen (Table 7) confirmed the results described above. […] Consistent with the data in Table 5 the cytotoxic effects measured after 2 days of culture were more varied with LC50 values ranging from 10 nM for COLO-205 colon tumour cells to ˜90 μM for 786-0 renal tumour cells.

OVCAR-8 = test: as above; format: cell-based; details: Homo sapiens, OVCAR-8, ovarian, 48 hr
Experimental: as §1

8K-MEL-5 = test: as above; format: cell-based; details: Homo sapiens, 8K-MEL-5, melanoma, 48 hr
Experimental: as §1

786-0 = test: as above; format: cell-based; details: Homo sapiens; for CC50: 786-0, 48 h, read-out: LC50 (the source's name)
Experimental: as §1

IGROVI = test: as above; format: cell-based; details: Homo sapiens, ovarian, 48 hr
Experimental: as §1

SF-268 = test: as above; format: cell-based; details: Homo sapiens, SF-268, brain, 48 hr
Experimental: as §1

SK-OV-3 = test: as above; format: cell-based; details: Homo sapiens, SK-OV-3, ovarian, 48 hr
Experimental: as §1

MDA-N = test: as above; format: cell-based; details: Homo sapiens, breast, 48 hr
Experimental: as §1

RXF 393 = test: as above; format: cell-based; details: Homo sapiens, RXF 393, renal, 48 hr
Experimental: as §1

MDA-MB-435 = test: as above; format: cell-based; details: Homo sapiens, MDA-MB-435, breast, 48 hr
Experimental: as §1

SF-539 = test: as above; format: cell-based; details: Homo sapiens, SF-539, brain, 48 hr
Experimental: as §1

A549 cells [1] = test: Senescence-associated β-galactosidase (SA-β-gal) activity staining; format: cell-based, human; details: A549, 10-50 nM, 10 days
Experimental: A549 cells were seeded at 10,000 cell/well in 6 well plates in the presence or absence of varying concentrations of Compound A (10-50 nM) or 250 nM doxorubicin for 10 days prior to their processing and staining overnight for senescence-associated β-galactosidase activity as described previously (Dimri et al., 1995, Proc Natl Acad Sci USA 1995 92(20):9363-7). […] PC, phase contrast microscopy. BF, bright field microscopy Magnification×200.
This was evaluated further by measuring senescence-associated β-galactosidase (SA-β-gal) activity, a biomarker previously described to correlate well with senescence of human cells (Dimri et al., Proc Natl Acad Sci USA 1995 92(20):9363-7). […] Therefore, in addition to Compound A A549 cells were also treated with doxorubicin as an experimental control.

A549 cells [2] = test: Proliferation of A549 cells, haemocytometer counting of trypan blue stained cells; format: cell-based, human; details: for cell death: after 9 days
Experimental: A549 cells were seeded at ˜10,000 cells/well and cultured in the presence of the indicted concentrations of Compound A or paclitaxel. Cells were collected and the viable cell number determined by haemocytometer counting of trypan blue stained cells at the various times. The results are the averages ±SEM of triplicate cultures.
The cytostatic effect of Compound A on the proliferation of A549 cells was confirmed by directly counting the number of cells at intervals over a nine day period (FIG. 3). When compared to untreated cells 10 nM Compound A prevented the increase in cell number by more than 95% with fewer than 10% dead cells observed at this time (measured by trypan blue exclusion). Thus, under these conditions the decreased cell number can not simply be accounted for by increased cell death. […] At the higher concentrations of 50 nM and 250 nM Compound A had cytotoxic effects and increased cell death to 86% and 100% respectively after 9 days and accounts for the decline in cell number to levels below the original staring number at this time. At the non-cytotoxic concentration of 10 nM, Compound A has a rapid and potent cytostatic effect on A549 cells.

THP-1 cells = test: WST-1 reduction by THP-1 cells; format: cell-based, human; details: Homo sapiens
Text: (a) Compounds A and B were identified from a bark sample of Aglaia leptantha through their ability to inhibit production of Tumour Necrosis Factor-α (TNF-α) by THP-1 human promonocytic leukemia cells (Tsuchiya, et al, Int. J. Cancer, 1980, 26(2):171-6) activated with lipopolysaccharide (LPS). Table 4 summarises the results comparing the activity of Compounds A and B for inhibition of TNF-α production to their effects on general cell metabolism measured using WST-1 reduction, DNA synthesis and protein synthesis assays for THP-1 cells. […] For comparison, the effects of Compounds A and B on A549 lung epithelial carcinoma cells (Leiber et al, Int. J. Cancer, 1976, 17(1)-62-70) were also measured and the data is also included in Table 4.

[3] = test system: panel of cell lines derived from a variety of human tumour types; test: Cytostatic activity against a panel of human tumour cell lines (summary); format: cell-based; details: 72 h, range over the cell line panel, 3 days, read-out: GI50 values in nearly all cell lines tested
Experimental: (b) Compound A was assessed for cytotoxic and cytostatic activity against a panel of cell lines derived from a variety of human tumour types in addition to THP-1 and A549 cells (Table 5). These included K562 leukemic cells (Lozzio and Lozzio, 1975, Blood 45:321-34), PC3 prostate tumour cells (Kaighn et al., 1979, Invest. Urol. 17:16-23) and SF268 glioblastoma cells (Westphal et al, 1985, Biochem. Biophys. Res. Commun., 132:284-9). […] However, the cytotoxic potency of Compound A increased dramatically after 6 days of culture for the K562, A549 and SF268 cells.

[4] = read-out: LC50 (the source's name)

`COC(=O)[C@H]1[C@@H](O)[C@@]2(O)c3c(OC)cc(OC4OC(C(O)CO)COC4OC)cc3O[C@@]2(c2ccc(OC)cc2)[C@@H]1c1ccccc1` (single isomer, unassigned) [Compound A] was tested, and the GI50 (A498) was < 10 nM, the CC50 (A498; [4]) was 18600 nM and the GI50 (OVCAR-8) was < 10 nM. For the same molecule, the CC50 (OVCAR-8; [4]) was 21900 nM, the GI50 (8K-MEL-5) was < 10 nM and the CC50 (8K-MEL-5; [4]) was 67 nM. For the same molecule, the CC50 (786-0; 786-0, renal, 48 hr) was 91200 nM, the CC50 (786-0; 786-0 renal tumour cells, 2 days of culture) was ~90000 nM and the GI50 (786-0; 786-0, renal, 48 hr) was < 10 nM. For the same molecule, the GI50 (IGROVI) was < 10 nM, the CC50 (IGROVI; [4]) was 2600 nM and the GI50 (SF-268) was < 10 nM. For the same molecule, the CC50 (SF-268; [4]) was 1000 nM, the GI50 (SK-OV-3) was < 10 nM and the CC50 (SK-OV-3; [4]) was 82200 nM. For the same molecule, the GI50 (MDA-N) was < 10 nM, the CC50 (MDA-N; [4]) was 543 nM and the GI50 (RXF 393) was < 10 nM. The CC50 (RXF 393; [4]) was 1640 nM, the GI50 (MDA-MB-435) was < 10 nM and the CC50 (MDA-MB-435; [4]) was 45 nM. For the same molecule, the GI50 (SF-539) was < 10 nM, the CC50 (SF-539; [4]) was 1100 nM and the SA-β-gal activity (A549 cells [1]) was “failed to induce SA-β-gal activity”. For the same molecule, the “dead cells (trypan blue exclusion)” value (A549 cells [2]; A549, 10 nM) was < 10%, the “prevention of the increase in cell number compared to untreated cells” value (A549 cells [2]; A549, 10 nM, nine day period) was “more than 95%” and the cell death (A549 cells [2]; A549, 50 nM) was 86%. The cell death (A549 cells [2]; A549, 250 nM) was 100%, the IC50 (THP-1 cells; THP-1, 18 h, THP-1 cells, 18 hours of culture, read-out: IC50 WST-1 Reduction) was 30 nM and the IC50 (THP-1 cells; THP-1, 72 h, THP-1 leukemic cells, cultured with compound for 3 days, read-out: IC50 (reduction of WST-1)) was 2 nM. The GI50 [3] was 1 to 7 nM.
